Results from the supplement of paper PMC10331698.
± gives the standard deviation of the averaged measurements.

Columns and labels:
[1] = compound: C=CC(=O)OCCC(F)(F)C(F)(F)C(F)(F)C(F)(F)C(F)(F)C(F)(F)C(F)(F)C(F)(F)F [8:2 Fluorotelomer acrylate]; assay: level (log10 ratio to DMSO vehicle control); higher = higher biomarker level / cell amount than vehicle control; conditions: in DMSO
Method: (§1)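 BioMAP Diversity Plus panel of 12 human primary cell co-culture systems (3C, 4H, LPS, SAg, BT, BF4T, BE3C, CASM3C, HDF3CGF, KF3CT, MyoF, Mphg). Compounds were added 1 h before stimulation and left for 24 h (MyoF 48 h; BT 72 h for soluble read-outs or 6 d for IgG). Biomarkers were read by ELISA, cytotoxicity by SRB, PBMC viability and proliferation by Alamar Blue. Each well value was divided by the mean of 8 DMSO control wells on the same plate and log10 transformed; duplicate blinded samples were tested at 4 concentrations.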

[2] = compound: O=C(Cl)C(F)(F)C(F)(F)C(F)(F)C(=O)Cl [Hexafluoroglutaryl chloride]; assay: as above; conditions: in DMSO
Method: as §1

| Test System | level (log10) ([1]; 6700 nM) | level (log10) ([1]; 20000 nM) | level (log10) ([1]; 60000 nM) | level (log10) ([2]; 6700 nM) | level (log10) ([2]; 20000 nM) | level (log10) ([2]; 60000 nM) |
| --- | --- | --- | --- | --- | --- | --- |
| HDF3CGF:PAI-I | -0.0135 ± 0.013 | -0.0665 ± 0.0021 | -0.071 ± 0.0057 | -0.05 ± 0.073 | -0.0215 ± 0.083 | -0.0155 ± 0.043 |
| CASM3C:CXCL9/MIG | 0.026 ± 0.0071 | -0.0055 ± 0.066 | 0.011 ± 0.065 | 0.0055 ± 0.043 | -0.002 ± 0.04 | 0.0115 ± 0.1 |
| BE3C:tPA | -0.034 ± 0.02 | -0.051 ± 0.0042 | -0.002 ± 0.04 | -0.005 ± 0.0014 | -0.009 ± 0.014 | -0.0075 ± 0.022 |
| 3C:CD106/VCAM-1 | -0.0185 ± 0.015 | -0.027 ± 0.041 | -0.024 ± 0.05 | -0.03 ± 0.021 | -0.028 ± 0.035 | -0.018 ± 0.02 |
| CASM3C:CD142/Tissue Factor | -0.036 ± 0.021 | -0.047 ± 0.05 | -0.0145 ± 0.032 | -0.0245 ± 0.028 | -0.0635 ± 0.037 | -0.0395 ± 0.035 |
| CASM3C:PAI-I | -0.0045 ± 0.0021 | -0.008 ± 0.0099 | 0.005 ± 0.017 | -0.0135 ± 0.021 | 0.0025 ± 0.0078 | 0.0065 ± 0.0021 |
| lMphg:sIL-10 | -0.058 ± 0.016 | -0.014 ± 0.062 | -0.0465 ± 0.012 | -0.049 ± 0.045 | -0.102 ± 0.0035 | 0.0335 ± 0.076 |
| KF3CT:CD54/ICAM-1 | 0.003 ± 0.0042 | -0.0155 ± 0.029 | -0.0455 ± 0.019 | -0.013 ± 0.0014 | -0.002 ± 0.0057 | -0.002 ± 0.0028 |
| MyoF:Decorin | -0.0175 ± 0.0078 | -0.0185 ± 0.0078 | -0.016 ± 0.017 | -0.014 ± 0.016 | -0.0095 ± 0.026 | -0.006 ± 0.0099 |
| MyoF:PAI-I | -0.0055 ± 0.018 | -0.0105 ± 0.015 | -0.0355 ± 0.015 | -0.001 ± 0.0085 | 0.02 ± 0.013 | 0.01 ± 0.0042 |
| BE3C:MMP-1 | -0.015 ± 0.0085 | -0.013 ± 0.023 | 0.0365 ± 0.08 | -0.001 ± 0.014 | -0.008 ± 0.014 | 0.0065 ± 0.016 |
| 3C:CCL2/MCP-1 | 0.005 ± 0.0042 | -0.0155 ± 0.0064 | 0.019 ± 0.016 | 0.009 ± 0.0028 | -0.0105 ± 0.035 | 0.009 ± 0.065 |
| MyoF:MMP-1 | -0.0295 ± 0.0092 | -0.06 ± 0.071 | 0.0075 ± 0.098 | -0.043 ± 0.05 | -0.026 ± 0.054 | -0.0195 ± 0.018 |
| BE3C:MMP-9 | -0.027 ± 0.0071 | -0.016 ± 0.0042 | -0.011 ± 0.024 | -0.0005 ± 0.00071 | -0.003 ± 0.018 | -0.0325 ± 0.042 |
| HDF3CGF:Proliferation 72hr | -0.011 ± 0.0099 | -0.026 ± 0.044 | -0.154 ± 0.076 | 0.001 ± 0.0042 | -0.0005 ± 0.012 | -0.0095 ± 0.019 |
| KF3CT:CCL2/MCP-1 | -0.0265 ± 0.042 | -0.0415 ± 0.0092 | -0.0725 ± 0.04 | -0.021 ± 0.016 | -0.007 ± 0.017 | 0.0075 ± 0.016 |
| CASM3C:SRB | -0.002 | 0.005 ± 0.0099 | 0.0085 ± 0.0064 | -0.0045 ± 0.0021 | 0.007 ± 0.0042 | 0.0115 ± 0.016 |
| MyoF:CD106/VCAM-1 | -0.012 ± 0.0071 | -0.0335 ± 0.0078 | -0.027 ± 0.023 | -0.003 ± 0.0028 | 0.0015 ± 0.018 | 0.0035 ± 0.012 |
| lMphg:SRB-Mphg | -0.026 ± 0.0014 | -0.012 ± 0.021 | 0.003 ± 0.037 | 0.007 ± 0.0057 | 0.0065 ± 0.005 | 0.0125 ± 0.011 |
| lMphg:CD62E/E-Selectin | 0.019 ± 0.038 | 0.0215 ± 0.0064 | 0.041 ± 0.034 | -0.0295 ± 0.016 | 0.0025 ± 0.018 | -0.0365 ± 0.022 |
